According to patent US20250099515A1, “LACTOBACILLUS ACIDOPHILUS TO INCREASE AGMATINE PRODUCTION BY MICROBIOTA” (SOCIETE DES PRODUITS NESTLE S.A., priority 2021, published 2025):
Where “and” joins values, the source holds several entries; their conditions need not be identical. Equal entries are not always repeated. Where two headings read alike, the source gives them in different places.

Tests used:
α2-Adrenoceptors = conditions: Bovine adrenal cortex; cited from earlier work
α2A-Adrenoceptors = α2A-Adrenoceptors (Homo sapiens, UniProt P08913); conditions: Human recombinant receptor; cited from earlier work
α2B-Adrenoceptors = α2B-Adrenoceptors (Homo sapiens, UniProt P18089); conditions: Human recombinant receptor; cited from earlier work
α2B-Adrenoceptors, sequence (P18089 whole entry): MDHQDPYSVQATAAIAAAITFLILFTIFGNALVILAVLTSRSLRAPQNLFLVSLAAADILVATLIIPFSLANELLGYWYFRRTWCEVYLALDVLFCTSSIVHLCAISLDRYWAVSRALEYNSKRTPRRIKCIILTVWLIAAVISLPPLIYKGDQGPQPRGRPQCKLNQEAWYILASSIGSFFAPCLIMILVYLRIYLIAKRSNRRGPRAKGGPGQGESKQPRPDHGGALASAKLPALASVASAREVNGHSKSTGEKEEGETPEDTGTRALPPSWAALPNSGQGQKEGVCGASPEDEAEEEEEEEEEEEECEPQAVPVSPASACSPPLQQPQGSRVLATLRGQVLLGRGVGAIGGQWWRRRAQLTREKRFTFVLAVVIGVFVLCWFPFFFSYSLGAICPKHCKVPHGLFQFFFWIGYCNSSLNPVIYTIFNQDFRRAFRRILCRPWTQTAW

α2C-Adrenoceptors = α2C-Adrenoceptors (Homo sapiens, UniProt P18825); conditions: Human recombinant receptor; cited from earlier work
[1] = target: I1-Imidazoline binding sites; conditions: Bovine ventrolateral medulla; cited from earlier work
[2] = target: I1-Imidazoline binding sites; conditions: Bovine adrenomedullary cell; cited from earlier work
[3] = target: I1-Imidazoline binding sites; conditions: Human platelet-purified plasma membranes; cited from earlier work
[4] = target: I1-Imidazoline binding sites; conditions: Rat stomach membranes; cited from earlier work
[5] = target: I2-Imidazoline binding sites; conditions: Rat aorta smooth muscle cells; cited from earlier work
[6] = target: I2-Imidazoline binding sites; conditions: Rat whole brain membranes; cited from earlier work
[7] = target: I2-Imidazoline binding sites; conditions: Rat stomach membranes; cited from earlier work
[8] = target: I2-Imidazoline binding sites; conditions: Bovine adrenal chromaffin cells; cited from earlier work
[9] = target: I2-Imidazoline binding sites; conditions: Bovine endothelial cells; cited from earlier work
[10] = target: I2-Imidazoline binding sites; conditions: Human platelet-purified internal membranes; cited from earlier work
[11] = target: I2-Imidazoline binding sites; conditions: Human atrial appendages; cited from earlier work
[12] = target: I2-Imidazoline binding sites; conditions: Chicken brain membranes; cited from earlier work
[13] = target: I2-Imidazoline binding sites; conditions: Frog whole brain membranes; cited from earlier work
[14] = target: I2-Imidazoline binding sites; conditions: Rabbit whole brain membranes; cited from earlier work
[15] = target: Presynaptic imidazoline receptor; conditions: Human atrial appendages; cited from earlier work
[16] = tested on: Presynaptic imidazoline receptor; conditions: Rabbit aorta; at 0.1 and 1 μM; cited from earlier work
[17] = target: NMDA receptor, polyamine binding site; conditions: Rat cerebral cortex; cited from earlier work
[18] = target: NMDA receptor, MK-801 binding site; conditions: Rat cerebral cortex; cited from earlier work
NMDA receptor = target: T1, NMDA receptor; conditions: Rat cerebral membrane; cited from earlier work
T1 construct: Ki; other: Rat cerebral membrane

[19] = target: NMDA receptor, NR1-ζ/NR2-ε1 (Mus musculus, UniProt P35436+P35438); conditions: Recombinant receptor; cited from earlier work
NMDA receptor, NR1-ζ/NR2-ε1, sequence (P35436 20-1464 limits assumed, other chains not shown): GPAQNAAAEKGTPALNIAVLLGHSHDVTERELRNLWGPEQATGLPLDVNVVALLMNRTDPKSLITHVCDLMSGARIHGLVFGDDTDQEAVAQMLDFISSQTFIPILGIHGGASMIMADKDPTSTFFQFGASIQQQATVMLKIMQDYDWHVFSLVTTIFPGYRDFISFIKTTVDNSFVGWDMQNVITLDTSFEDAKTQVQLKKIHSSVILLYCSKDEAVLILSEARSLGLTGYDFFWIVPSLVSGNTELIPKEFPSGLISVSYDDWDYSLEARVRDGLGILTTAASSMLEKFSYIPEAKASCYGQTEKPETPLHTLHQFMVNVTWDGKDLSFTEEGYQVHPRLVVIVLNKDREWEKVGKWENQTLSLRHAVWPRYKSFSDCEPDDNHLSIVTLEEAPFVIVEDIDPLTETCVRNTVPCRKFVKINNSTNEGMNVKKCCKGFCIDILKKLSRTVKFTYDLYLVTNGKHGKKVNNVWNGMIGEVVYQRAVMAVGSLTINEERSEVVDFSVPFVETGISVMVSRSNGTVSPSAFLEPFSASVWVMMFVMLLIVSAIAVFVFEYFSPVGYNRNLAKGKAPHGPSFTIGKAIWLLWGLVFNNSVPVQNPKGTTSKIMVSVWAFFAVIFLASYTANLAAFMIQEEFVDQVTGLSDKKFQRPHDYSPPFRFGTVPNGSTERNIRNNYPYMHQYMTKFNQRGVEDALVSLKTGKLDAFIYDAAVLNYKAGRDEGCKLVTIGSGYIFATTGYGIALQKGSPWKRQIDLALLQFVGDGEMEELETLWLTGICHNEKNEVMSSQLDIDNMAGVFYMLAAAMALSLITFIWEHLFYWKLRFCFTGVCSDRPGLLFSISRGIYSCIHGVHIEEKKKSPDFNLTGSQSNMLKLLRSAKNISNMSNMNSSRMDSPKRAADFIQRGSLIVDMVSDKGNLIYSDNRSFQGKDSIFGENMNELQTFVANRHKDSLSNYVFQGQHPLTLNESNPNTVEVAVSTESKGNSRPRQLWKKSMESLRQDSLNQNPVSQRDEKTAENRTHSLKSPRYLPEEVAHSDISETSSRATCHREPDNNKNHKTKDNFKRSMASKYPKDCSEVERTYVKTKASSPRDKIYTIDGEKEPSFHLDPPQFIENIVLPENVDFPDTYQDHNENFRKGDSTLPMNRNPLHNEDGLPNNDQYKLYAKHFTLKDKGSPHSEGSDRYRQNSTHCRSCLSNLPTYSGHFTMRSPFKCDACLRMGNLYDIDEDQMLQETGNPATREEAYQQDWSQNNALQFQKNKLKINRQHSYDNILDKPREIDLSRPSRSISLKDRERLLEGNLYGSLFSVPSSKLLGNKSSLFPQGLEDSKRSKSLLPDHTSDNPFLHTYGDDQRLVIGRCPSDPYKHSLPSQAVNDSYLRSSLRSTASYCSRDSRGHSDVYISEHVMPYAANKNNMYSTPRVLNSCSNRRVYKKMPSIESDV

[20] = target: NMDA receptor, NR1-ζ/NR2-ε2 (Mus musculus, UniProt P35438+Q01097); conditions: Recombinant receptor; cited from earlier work
NMDA receptor, NR1-ζ/NR2-ε2, sequence (Q01097 27-1482, other chains not shown): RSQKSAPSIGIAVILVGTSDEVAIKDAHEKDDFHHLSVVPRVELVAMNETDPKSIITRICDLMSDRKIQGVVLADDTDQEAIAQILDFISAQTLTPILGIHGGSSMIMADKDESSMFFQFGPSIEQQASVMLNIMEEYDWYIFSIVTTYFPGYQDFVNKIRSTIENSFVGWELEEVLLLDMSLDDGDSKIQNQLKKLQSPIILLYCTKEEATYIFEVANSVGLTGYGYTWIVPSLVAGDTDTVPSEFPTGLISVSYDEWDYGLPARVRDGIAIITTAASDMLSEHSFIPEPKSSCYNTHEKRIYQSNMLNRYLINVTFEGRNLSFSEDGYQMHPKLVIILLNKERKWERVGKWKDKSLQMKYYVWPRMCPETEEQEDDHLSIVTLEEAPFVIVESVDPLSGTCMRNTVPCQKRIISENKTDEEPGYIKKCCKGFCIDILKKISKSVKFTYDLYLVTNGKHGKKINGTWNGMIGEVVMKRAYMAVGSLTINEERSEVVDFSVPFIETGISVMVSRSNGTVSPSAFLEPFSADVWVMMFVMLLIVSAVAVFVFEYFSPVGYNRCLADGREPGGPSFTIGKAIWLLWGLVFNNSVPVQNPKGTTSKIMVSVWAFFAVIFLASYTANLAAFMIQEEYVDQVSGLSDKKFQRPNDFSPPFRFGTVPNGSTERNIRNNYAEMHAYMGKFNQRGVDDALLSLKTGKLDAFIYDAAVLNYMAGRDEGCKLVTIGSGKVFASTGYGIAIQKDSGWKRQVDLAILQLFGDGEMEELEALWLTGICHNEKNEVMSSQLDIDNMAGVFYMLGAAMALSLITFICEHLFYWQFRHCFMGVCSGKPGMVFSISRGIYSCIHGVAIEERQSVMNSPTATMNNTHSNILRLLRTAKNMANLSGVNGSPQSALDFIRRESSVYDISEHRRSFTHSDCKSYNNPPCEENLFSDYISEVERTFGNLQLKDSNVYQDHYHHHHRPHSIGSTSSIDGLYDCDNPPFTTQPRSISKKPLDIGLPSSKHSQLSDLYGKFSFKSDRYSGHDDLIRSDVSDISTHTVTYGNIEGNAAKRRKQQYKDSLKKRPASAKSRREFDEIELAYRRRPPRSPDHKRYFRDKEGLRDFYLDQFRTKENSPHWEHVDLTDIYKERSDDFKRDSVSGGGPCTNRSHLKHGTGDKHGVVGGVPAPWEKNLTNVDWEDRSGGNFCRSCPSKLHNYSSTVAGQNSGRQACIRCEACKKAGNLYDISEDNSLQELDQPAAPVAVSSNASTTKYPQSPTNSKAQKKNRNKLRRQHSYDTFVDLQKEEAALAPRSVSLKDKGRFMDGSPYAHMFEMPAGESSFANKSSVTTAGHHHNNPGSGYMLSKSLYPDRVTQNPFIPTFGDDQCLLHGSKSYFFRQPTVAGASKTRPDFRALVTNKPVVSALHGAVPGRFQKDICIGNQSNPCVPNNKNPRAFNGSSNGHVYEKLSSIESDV

[21] = target: NMDA receptor, NR1-ζ/NR2-ε3 (Mus musculus, UniProt P35438+Q01098); conditions: Recombinant receptor; cited from earlier work
[22] = target: NMDA receptor, NR1-ζ/NR2-ε4 (Mus musculus, UniProt P35438+Q03391); conditions: Recombinant receptor; cited from earlier work
NMDA receptor, NR1-ζ/NR2-ε4, sequence (Q03391 28-1323, other chains not shown): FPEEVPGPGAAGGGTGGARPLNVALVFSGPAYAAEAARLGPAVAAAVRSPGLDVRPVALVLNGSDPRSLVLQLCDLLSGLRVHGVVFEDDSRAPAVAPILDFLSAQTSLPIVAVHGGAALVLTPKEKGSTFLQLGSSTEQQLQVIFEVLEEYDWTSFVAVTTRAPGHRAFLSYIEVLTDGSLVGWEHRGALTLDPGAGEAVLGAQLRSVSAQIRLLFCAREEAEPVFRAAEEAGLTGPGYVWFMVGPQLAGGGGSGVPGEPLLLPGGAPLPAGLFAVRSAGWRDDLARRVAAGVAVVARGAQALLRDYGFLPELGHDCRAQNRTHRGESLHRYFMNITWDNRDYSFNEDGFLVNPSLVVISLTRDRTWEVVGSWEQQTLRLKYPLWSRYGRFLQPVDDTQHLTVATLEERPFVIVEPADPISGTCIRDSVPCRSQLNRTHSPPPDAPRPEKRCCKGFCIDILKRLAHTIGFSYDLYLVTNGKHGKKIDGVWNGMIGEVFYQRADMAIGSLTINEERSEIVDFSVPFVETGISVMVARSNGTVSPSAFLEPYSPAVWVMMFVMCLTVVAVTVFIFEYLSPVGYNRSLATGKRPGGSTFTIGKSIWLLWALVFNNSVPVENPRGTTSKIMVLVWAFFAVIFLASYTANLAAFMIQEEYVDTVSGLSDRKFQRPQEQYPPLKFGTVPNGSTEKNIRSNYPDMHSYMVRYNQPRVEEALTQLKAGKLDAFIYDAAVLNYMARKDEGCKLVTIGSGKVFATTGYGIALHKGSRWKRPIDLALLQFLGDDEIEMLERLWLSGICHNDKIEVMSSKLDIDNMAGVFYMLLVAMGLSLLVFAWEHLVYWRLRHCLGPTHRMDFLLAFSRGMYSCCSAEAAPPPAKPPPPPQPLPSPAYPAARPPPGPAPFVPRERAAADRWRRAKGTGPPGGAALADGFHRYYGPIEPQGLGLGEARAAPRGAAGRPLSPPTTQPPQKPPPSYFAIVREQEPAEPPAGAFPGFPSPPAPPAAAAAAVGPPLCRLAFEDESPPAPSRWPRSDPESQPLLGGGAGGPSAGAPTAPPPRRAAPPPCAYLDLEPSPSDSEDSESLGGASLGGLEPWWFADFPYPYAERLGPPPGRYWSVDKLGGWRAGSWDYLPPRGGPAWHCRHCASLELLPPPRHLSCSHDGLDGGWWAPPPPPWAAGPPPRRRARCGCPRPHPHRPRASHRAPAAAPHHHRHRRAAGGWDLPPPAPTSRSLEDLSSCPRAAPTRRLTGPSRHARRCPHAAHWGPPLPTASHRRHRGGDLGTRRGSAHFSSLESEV

5-HT3 receptor = 5-HT3 receptor (Mus musculus, UniProt P23979); conditions: Mouse N1E-115 cells; cited from earlier work
5-HT3 receptor, sequence (P23979 24-489): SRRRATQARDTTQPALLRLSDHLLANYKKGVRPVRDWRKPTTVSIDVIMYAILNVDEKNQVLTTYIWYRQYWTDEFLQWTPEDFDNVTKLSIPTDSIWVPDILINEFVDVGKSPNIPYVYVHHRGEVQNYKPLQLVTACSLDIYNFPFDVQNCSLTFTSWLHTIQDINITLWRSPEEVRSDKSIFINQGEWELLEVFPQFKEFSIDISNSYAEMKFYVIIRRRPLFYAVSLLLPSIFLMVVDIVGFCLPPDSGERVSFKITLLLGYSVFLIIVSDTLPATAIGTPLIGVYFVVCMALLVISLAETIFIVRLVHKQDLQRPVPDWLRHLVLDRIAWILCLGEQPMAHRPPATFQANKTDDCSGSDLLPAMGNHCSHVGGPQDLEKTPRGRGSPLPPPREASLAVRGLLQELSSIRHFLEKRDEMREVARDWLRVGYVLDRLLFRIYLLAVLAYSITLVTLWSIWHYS

σ2-Binding sites [23] = target: σ2-Binding sites (Rattus norvegicus, UniProt Q5U3Y7); conditions: Rat stomach membranes; cited from earlier work
σ2-Binding sites [24] = target: σ2-Binding sites (Mus musculus, UniProt Q8VD00); conditions: Mouse N1E-115 cells; cited from earlier work
[25] = target: Nicotinic acetylcholine receptors; conditions: Chick retina; cited from earlier work
α-2 adrenoreceptors = conditions: depending on organs/cell type; read-out: Affinity for α-2 adrenoreceptors (Ki); cited from earlier work
[26] = cited from earlier work
[27] = tested on: mouse kidney proximal tubule, Ras transformed NIH-3T3 fibroblast, mouse glomerular mesangial, human Schwann tumor, rat glomerular endothelial cells, human …; conditions: several ex-vivo and in-vitro cell assays; cited from earlier work
HTC rat hepatoma cells = conditions: cited from earlier work
[28] = tested on: ODC and SSAT in liver and kidney; conditions: 456.6 mg/kg i.p., suiss female mice; cited from earlier work
colonic microbiota = assay: Prodigest short-term colonic incubations with fecal inocula of five donors; assay type: cell-based, human; conditions: FIG. 5
Procedure: Fecal material was collected from five healthy adult donors. Fecal suspensions were prepared and mixed with an internally optimized cryoprotectant. The obtained suspensions were aliquoted, flash frozen and then preserved at −80° C. (cryostock). Just before the experiment, fecal samples were defrosted and immediately added to the reactors. A short-term screening assay typically consists of a colonic incubation of a single dose of a test compound under conditions representative for the proximal large intestine, using bacterial inocula from selected donors as microbial sources. At the start of the short-term colonic incubations, test ingredients were added to a sugar-depleted nutritional medium containing basal nutrients of the colon. Because nutrients of this sugar-depleted nutritional medium will also be fermented by the colonic microbiota, a blank containing only the sugar-depleted nutritional medium (without product) was included for each donor. Finally, fecal inocula of five donors were added (healthy adult humans with no history of antibiotic use 6 months preceding the experiment). […] Reactors were incubated for 48 h at 37° C., under shaking (90 rpm) and anaerobic conditions. The incubations were performed in fully independent reactors with sufficiently high volume in order to not only ensure robust microbial fermentation, but also to allow the collection of multiple samples over time. Sample collection enables assessment of metabolite production and thus to understand the complex microbial interactions that are taking place. An assessment was made of the change in pH, and of gas, SCFA, ammonium and lactate production at the start of the incubation and after 6 h, 24 h and 48 h. Quantitative deep shotgun sequencing was performed at the start and after 24 h and 48 h of incubation. Targeted metabolic analysis of eight polyamines, an amino acid and a neurotransmitter was performed at the start of the incubation, and after 6 h, 24 h and 48 h. Targeted metabolic analysis: Eight different polyamines were targeted, more specifically putrescine, agmatine, acetyl-agmatine, omithine, spermidine, spermine, citrulline and 4-guanidinobutanoic acid. Additionally, samples were analyzed for amino acid arginine and neurotransmitter gamma-Aminobutyric acid (GABA).

[29] = target: imidazoline or α-2-adrenergic receptors; conditions: cited from earlier work
[30] = tested on: gut microbial polyamines, longevity; conditions: arginine intake from 0 to 9 mg/g body weight; abolished after antibiotics use; cited from earlier work
[31] = No observed effect level (max dose without toxicity); assay type: in vivo; conditions: [33]
[32] = rat, ten minutes after radiolabeled intravenous (IV) injection; cited from earlier work
[33] = human, putrescine in test meal; cited from earlier work
autophagy = conditions: depending on organ/cell type; cited from earlier work
polyamines synthesis = conditions: mouse model of osteoporosis; cited from earlier work

SMILES: NCCCCN=C(N)N [Agmatine, (4-aminobutyl) guanidine]
- Ki (α2-Adrenoceptors): 11 to 20 µM and 17 µM
- Ki (α2A-Adrenoceptors): 47 µM
- Ki (α2B-Adrenoceptors): 164 µM
- Ki (α2C-Adrenoceptors): 26.3 µM
- Ki [1]: 0.7 µM
- Ki [2]: 0.127 µM
- Ki [3]: 0.033 µM
- Ki [4]: 0.098 µM
- Ki [5]: 0.24 µM
- Ki [6]: 417 µM
- Ki [7]: 266 µM
- Ki [8]: 6 µM
- Ki [9]: 0.24 µM
- Ki [10]: 74.4 µM
- Ki [11]: > 100 µM
- Ki [12]: 0.63 µM
- Ki [13]: 7.5 µM
- Ki [14]: 856 µM
- Ki [15]: > 300 µM
- Inhibition [16]: Inhibition at 0.1 and 1 μM
- Ki [17]: 14.8 µM
- Ki [18]: 219 µM
- Ki (NMDA receptor): 50 µM
- IC50 [19]: 286 µM
- IC50 [20]: 330 µM
- IC50 [21]: 326 µM
- IC50 [22]: 289 µM
- IC50 (5-HT3 receptor): 708 µM
- Ki (5-HT3 receptor): > 1000 µM
- Ki (σ2-Binding sites [23]): 668 µM
- IC50 (σ2-Binding sites [24]): > 1000 µM
- IC50 [25]: > 1000 µM
- Ki (α-2 adrenoreceptors): 0.8 to 164 µM
- no observed effect level (max dose without toxicity) ([26]; in vivo): 2.67 g daily
- level at which agmatine interferes with polyamine metabolism, nitric oxide synthase and promotes antiproliferative effects [27]: 1 mM
- level at which agmatine interferes with polyamine metabolism, nitric oxide synthase and promotes antiproliferative effects (HTC rat hepatoma cells): 0.01 mM
- effect on ODC and SSAT in liver and kidney [28]: inhibition of ODC and activation of SSAT
- effect on epithelial cell proliferation in kidney renal tubule [28]: partial reduction of epithelial cell proliferation

SMILES: N=C(N)NCCC[C@H](N)C(=O)O [Arginine, arginine]
- agmatine produced (colonic microbiota; stool sample of donor A): about 5 μM
- agmatine produced (colonic microbiota; stool sample of donor B): about 3 μM
- agmatine produced (colonic microbiota; stool sample of donor C): did not produce agmatine
- agmatine produced (colonic microbiota; stool sample of donor D): did not produce agmatine
- agmatine produced (colonic microbiota; stool sample of donor E): about 5 μM
- Ki [29]: 5000 µM
- effect on fecal concentration of putrescine and spermidine [30]: increased

SMILES: NCCCCN [Putrescine, putrescine]
- no observed effect level (max dose without toxicity), total amount in brackets [31]: (~12 g)
- no observed effect level (max dose without toxicity) [26, 33]: 180 mg/kg body mg/kg body weight/day
- plasma decrease [32]: 67%
- recovered in blood [33]: Up to 20%

SMILES: NCCCCNCCCN [Spermidine, spermidine]
- no observed effect level (max dose without toxicity), total amount in brackets [31]: (~5.4 g)
- Dose required for cytoprotective effect/e.g. autophagy (autophagy): 10 to 100 µM
- no observed effect level (max dose without toxicity) [26, 33]: 83 mg/kg body mg/kg body weight/day
- plasma decrease [32]: 89%

SMILES: CC(=O)NCC(=O)O.CC(=O)NCC(=O)O.N=C(N)c1ccc(N=NNc2ccc(C(=N)N)cc2)cc1 [diminazene aceturate]
- effect on warm-induced bone benefits (polyamines synthesis): limited the warm-induced beneficial effects

SMILES: NCCCNCCCCNCCCN [Spermine, spermine]
- plasma decrease [32]: 30%
